This passage reports IC50 results from ChEMBL document CHEMBL1146998, “Cespitulactones A and B, new diterpenoids from Cespitularia taeniata” (Bioorg Med Chem Lett, 2006).

≈ marks a conversion by molar mass, not a printed value.

Common to all, as to type: functional, cell-based
Experiment [1] has as its system Daoy. As to the kind of experiment: Cytotoxicity against human Daoy cell line by MTT assay. On the technique in general: Tetrazolium dyes change colour on reduction, which living cells bring about.
Experiment [2] relates to WiDr. As to the kind of experiment: Cytotoxicity against human WiDr cell line by MTT assay.
For experiment [3], the system named is HeLa. As to the kind of experiment: Cytotoxicity against human HeLa cell line by MTT assay.
Experiment [4] relates to DLD-1. As to the kind of experiment: Cytotoxicity against human DLD1 cell line by MTT assay.

A word on the IC50: it is the concentration that gives 50% inhibition. In the case of `C=C1CC[C@@H]2CCC3=C(C(=O)[C@@H](/C(C)=C/[C@@H](OC(C)=O)C1)[C@H]3O)C2(C)C` [CESPITULARIN J], the IC50 in experiment [1] and in experiment [2] was over 20 µg/mL throughout.
As to `CC(=O)O[C@@H]1/C(C(C)C)=C\C=C(/C)CC/C=C(\C)CC[C@@H]2O[C@@]2(C)[C@H]1OC(C)=O`, the results for the IC50 in experiment [1] and in experiment [2] were 16.9 µg/mL (≈ 41.8 µM) and 13.8 µg/mL (≈ 34.1 µM), respectively.
Regarding `C=C1CC[C@@H]2CCC3=C(C2(C)C)[C@@](OC)(C/C(C)=C/[C@@H](O)C1)OC3=O` [CESPITULACTONE B], the IC50 in experiment [1] and in experiment [2] was over 20 µg/mL throughout.
Turning to `C=C1CC[C@@H]2CCC3=C(C(=O)[C@@H](/C(C)=C/C(O)C1)[C@H]3O)C2(C)C` (stereo not given in full) [CESPITULARIN F], the IC50 in experiment [1] and in experiment [2] was over 20 µg/mL each time.
Regarding `C=C1CC[C@@H]2CC[C@H](OC(=O)C/C(C)=C/[C@@H](OC(=O)c3ccc(Cl)cc3)C1)C(=O)C2(C)C`, the IC50 in experiment [1] and in experiment [2] was over 20 µg/mL throughout.
Consider `C=C1CC[C@@H]2CC[C@H](OC(=O)C/C(C)=C/[C@@H](OC(C)=O)C1)C(=O)C2(C)C` [CESPITULACTONE A MONOACETATE], for which the 50% inhibitory concentration (IC50) in experiment [1] and in experiment [2] was over 20 µg/mL in each case.
With `C=C1CC[C@@H]2CC[C@H](OC(=O)C/C(C)=C/[C@@H](OC(=O)c3ccccc3)C1)C(=O)C2(C)C`, the IC50 in experiment [1] and in experiment [2] was over 20 µg/mL each time.
Take `C=C1CC[C@@H]2CCC3=C(C2(C)C)[C@@](O)(C/C(C)=C/[C@@H](O)C1)OC3=O` [CESPITULARIN D]: the half-inhibitory concentration (IC50) in experiment [1] and in experiment [2] was over 20 µg/mL each time.
With `C=C1CC[C@@H]2CC[C@H](OC(=O)C/C(C)=C/[C@@H](O)C1)C(=O)C2(C)C` [CESPITULACTONE A], the IC50 in experiment [3] is 3.69 µg/mL (≈ 11.5 µM); in experiment [4] it was 9.98 µg/mL (≈ 31.1 µM); in experiment [1] it was over 20 µg/mL; in experiment [2], over 20 µg/mL.
